Results published in patent publication US10259781B2, “Imaging agents” (THE REGENTS OF THE UNIVERSITY OF MICHIGAN, priority 2012, dated 2019).
Entries after “also recorded” stand apart in the source; their conditions may differ.

Experiments:
[1] = MicroPET imaging studies in rats: excretion through the bladder; assay type: in vivo, rat
Protocol: (§1) During the development of embodiments of the technology provided herein, the biodistribution of [^18F]4F-MHPG into the organs of rats was assessed. In particular, four time points (Table 3) were collected and used to derive human radiation absorbed dose estimates using the OLINDA/EXM 1.0 software package (see, e.g., Stabin et al. (2005) “OLINDA/EXM; the second-generation personal computer software for internal dose assessment in nuclear medicine”, J Nucl Med. 46: 1023-7). […] These values were entered into the Dynamic Bladder model of OLINDA/EXM, assuming a 4.0-hour void interval. Organs with the highest absorbed dose estimates included the urinary bladder wall (0.666 rad/mCi), […] (0.221 rad/mCi), small intestine (0.201 rad/mCi), and the heart wall (0.201 rad/mCi). An ‘effective dose’ of 0.091 rem/mCi was estimated for [^18F]4F-MHPG. Under United States Federal Regulations governing research with a new radiopharmaceutical (21 CFR § 361.1), the maximum allowable radiation absorbed dose to an individual organ (other than the gonads) is 5 rad. Considering the maximum estimated absorbed dose (urinary bladder wall; 0.666 rad/mCi), initial PET studies in human subjects could use a maximum of 7.5 mCi of [^18F]4F-MHPG. This would correspond to an ‘effective dose’ of 0.68 rem.

[2] = target: T1, norepinephrine transporters (NET) (Macaca mulatta, UniProt Q9MYW8); assay: Desipramine (DMI) block of the neuronal uptake of [18F]4F-MHPG, microPET; assay type: in vivo, rhesus macaque monkey
T1 construct: from tissue; host or cells: heart (presynaptic sympathetic nerve terminals) of living rhesus macaque monkeys, microPET in vivo
Text: Additional data were collected and Patlak analyses performed.
Orthogonal slice images were acquired for comparison with data from a control study.

Biodistribution in rats = assay type: in vivo, rat; conditions: for Biodistribution, Ovary / Biodistribution, Testes / Biodistribution, Uterus: n = 2
Protocol: During the development of embodiments of the technology, data were collected from bioevaluation studies of [^18F]4F-MHPG. […]
as §1

[3] = test system: cardiac sympathetic nerve terminals; assay: MicroPET imaging and myocardial kinetics (compartmental modeling, Patlak graphical analysis) in monkeys; assay type: in vivo, rhesus macaque monkey
Protocol: A series of microPET imaging studies were performed in the macaque model to assess image quality and tracer kinetics. In most of these the time course of the metabolic breakdown of [^18F]4F-MHPG in plasma was also determined. The studies are summarized below in Table 1.
During the development of embodiments of the technology provided herein, the kinetics of [^18F]4F-MHPG in monkey hearts was assessed using either compartmental modeling or Patlak graphical analysis to obtain quantitative measures of regional cardiac sympathetic nerve density.
For some analyses, a simplified compartmental model that assumed irreversible trapping inside nerve terminals was used to estimate the model rate constants K1 (ml/min/g), k2 (min^−1), k3 (min^−1), and a blood volume fraction BV (dimensionless) (see, e.g., FIG. 7). In both the control studies and DMI blocking studies, the model quickly converged to a single global minimum in just a few iterations of the nonlinear regression analysis (FIG. 8). […] This aggregate parameter provides a stable measure of cardiac nerve density that declined in a dose-dependent manner with increasing DMI dose (FIG. 9, “Kinetic modeling”).
For some analyses, Patlak graphical analysis was used, which uses a mathematical transformation of the kinetic data Cp(t) and Ct(t) to generate a Tatlak plot′ having a characteristic linear phase (see, e.g., Patlak and Blasberg (1985) “Graphical evaluation of blood-to-brain transfer constants from multiple-time uptake data. Generalizations.” J Cereb Blood Flow 5: 584-90). The slope of the linear portion of a Patlak plot, Kp (ml/min/g), provides an alternate estimate of the ‘net uptake rate constant’ Ki (ml/min/g). Thus, for the model structure used (FIG. 7), the slope of the Patlak plot is given by Kp≈(K1k3)/(k2+k3).
During the development of embodiments of the technology provided herein, the myocardial kinetics of [^18F]4F-MHPG was assessed using Patlak graphical analysis and metabolite-corrected plasma input functions. In this example, the Patlak plot is highly linear (r^2=1.00) and the estimated Patlak slope Kpatlak=0.252 ml/min/g. […] As such, regional estimates of the Patlak slope from Patlak analysis of the kinetics of [^18F]4F-MHPG serve as robust measures of regional cardiac sympathetic nerve density in patients with heart diseases.

[4] = 30 minutes after injection, n=5

T1 sequence (Q9MYW8 1-617): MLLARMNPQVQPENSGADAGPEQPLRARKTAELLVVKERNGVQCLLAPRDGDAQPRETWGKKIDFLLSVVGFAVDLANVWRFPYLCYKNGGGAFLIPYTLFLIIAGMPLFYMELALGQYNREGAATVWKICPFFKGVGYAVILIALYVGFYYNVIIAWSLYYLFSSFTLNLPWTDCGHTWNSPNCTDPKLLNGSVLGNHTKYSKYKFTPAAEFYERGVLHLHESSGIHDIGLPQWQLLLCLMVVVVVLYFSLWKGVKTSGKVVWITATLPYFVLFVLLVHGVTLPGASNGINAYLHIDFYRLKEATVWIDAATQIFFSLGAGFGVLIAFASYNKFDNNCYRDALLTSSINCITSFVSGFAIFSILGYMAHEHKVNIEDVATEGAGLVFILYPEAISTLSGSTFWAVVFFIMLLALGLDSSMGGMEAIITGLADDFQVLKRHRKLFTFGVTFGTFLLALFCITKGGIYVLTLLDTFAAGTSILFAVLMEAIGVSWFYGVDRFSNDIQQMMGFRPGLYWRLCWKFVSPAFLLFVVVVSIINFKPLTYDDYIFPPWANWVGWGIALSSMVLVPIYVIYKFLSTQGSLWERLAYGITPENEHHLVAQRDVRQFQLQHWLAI

N=C(N)NCCc1ccc(F)c(O)c1 [[^18F]4F-MHPG] [4-[^18F]fluoro-meta-hydroxy-phenethylguanidine]
biological half-time of excretion through the bladder [1]: 0.20±0.02 hours | injected dose excreted through the bladder [1]: 19.9±0.2% | specificity of myocardial uptake for cardiac sympathetic neurons ([2]; control vs DMI block): 100% | nonspecific binding in heart tissue ([2]; highest dose DMI block study): very low; also recorded: extremely low | maximum percentage of the injected dose observed in the gastrointestinal tract (Biodistribution in rats): 12.6% | Biodistribution, Adrenal (Biodistribution in rats; 5 min): 0.203 ± 0.083 % ID · kg/g | Biodistribution, Blood (Biodistribution in rats; 5 min): 0.062 ± 0.004 % ID/g | Biodistribution, Bone (Biodistribution in rats; 5 min): 0.060 ± 0.015 % ID/g | Biodistribution, Brain (Biodistribution in rats; 5 min): 0.004 ± 0.001 % ID · kg/g | Biodistribution, Eyeballs (Biodistribution in rats; 5 min): 0.039 ± 0.006 % ID · kg/g | Biodistribution, Heart (Biodistribution in rats; 5 min): 0.746 ± 0.067 % ID · kg/g | Biodistribution, Kidney (Biodistribution in rats; 5 min): 1.398 ± 0.530 % ID · kg/g | Biodistribution, Liver (Biodistribution in rats; 5 min): 0.477 ± 0.110 % ID · kg/g | Biodistribution, Lung (Biodistribution in rats; 5 min): 0.267 ± 0.045 % ID · kg/g | Biodistribution, Muscle (Biodistribution in rats; 5 min): 0.019 ± 0.005 % ID/g | Biodistribution, Pancreas (Biodistribution in rats; 5 min): 0.137 ± 0.024 % ID · kg/g | Biodistribution, Spleen (Biodistribution in rats; 5 min): 0.268 ± 0.044 % ID · kg/g | Biodistribution, Stomach (Biodistribution in rats; 5 min): 0.116 ± 0.021 % ID · kg/g | Biodistribution, Ovary (Biodistribution in rats; 5 min): 0.194 ± 0.048 % ID · kg/g | Biodistribution, Testes (Biodistribution in rats; 5 min): 0.018 ± 0.002 % ID · kg/g | Biodistribution, Uterus (Biodistribution in rats; 5 min): 0.268 ± 0.044 % ID · kg/g | Biodistribution, Adrenal (Biodistribution in rats; 30 min): 0.181 ± 0.069 % ID · kg/g | Biodistribution, Blood (Biodistribution in rats; 30 min): 0.022 ± 0.003 % ID/g | Biodistribution, Bone (Biodistribution in rats; 30 min): 0.039 ± 0.015 % ID/g | Biodistribution, Brain (Biodistribution in rats; 30 min): 0.003 ± 0.000 % ID · kg/g | Biodistribution, Eyeballs (Biodistribution in rats; 30 min): 0.040 ± 0.004 % ID · kg/g | Biodistribution, Heart (Biodistribution in rats; 30 min): 0.602 ± 0.111 % ID · kg/g | Biodistribution, Kidney (Biodistribution in rats; 30 min): 0.183 ± 0.055 % ID · kg/g | Biodistribution, Liver (Biodistribution in rats; 30 min): 0.406 ± 0.071 % ID · kg/g | Biodistribution, Lung (Biodistribution in rats; 30 min): 0.136 ± 0.032 % ID · kg/g | Biodistribution, Muscle (Biodistribution in rats; 30 min): 0.025 ± 0.011 % ID/g | Biodistribution, Pancreas (Biodistribution in rats; 30 min): 0.145 ± 0.021 % ID · kg/g | Biodistribution, Spleen (Biodistribution in rats; 30 min): 0.262 ± 0.055 % ID · kg/g | Biodistribution, Stomach (Biodistribution in rats; 30 min): 0.110 ± 0.004 % ID · kg/g | Biodistribution, Ovary (Biodistribution in rats; 30 min): 0.171 ± 0.020 % ID · kg/g | Biodistribution, Testes (Biodistribution in rats; 30 min): 0.010 ± 0.001 % ID · kg/g | Biodistribution, Uterus (Biodistribution in rats; 30 min): 0.155 ± 0.001 % ID · kg/g | tissue concentration, adrenal medulla (Biodistribution in rats; [4]): 0.54 ± 0.08 percentage of the injected dose per gram | tissue concentration, blood (Biodistribution in rats; [4]): 0.07 ± 0.01 percentage of the injected dose per gram | tissue concentration, left ventricle (Biodistribution in rats; [4]): 1.45 ± 0.13 percentage of the injected dose per gram | tissue concentration, liver (Biodistribution in rats; [4]): 1.14 ± 0.16 percentage of the injected dose per gram | tissue concentration, lung (Biodistribution in rats; [4]): 0.43 ± 0.08 percentage of the injected dose per gram | tissue concentration, muscle (Biodistribution in rats; [4]): 0.07 ± 0.01 percentage of the injected dose per gram | tissue concentration, spleen (Biodistribution in rats; [4]): 0.56 ± 0.10 percentage of the injected dose per gram | Biodistribution, Adrenal (Biodistribution in rats; 60 min): 0.193 ± 0.053 % ID · kg/g | Biodistribution, Blood (Biodistribution in rats; 60 min): 0.016 ± 0.002 % ID/g | Biodistribution, Bone (Biodistribution in rats; 60 min): 0.027 ± 0.009 % ID/g | Biodistribution, Brain (Biodistribution in rats; 60 min): 0.002 ± 0.000 % ID · kg/g | Biodistribution, Eyeballs (Biodistribution in rats; 60 min): 0.041 ± 0.006 % ID · kg/g | Biodistribution, Heart (Biodistribution in rats; 60 min): 0.526 ± 0.116 % ID · kg/g | Biodistribution, Kidney (Biodistribution in rats; 60 min): 0.186 ± 0.090 % ID · kg/g | Biodistribution, Liver (Biodistribution in rats; 60 min): 0.350 ± 0.077 % ID · kg/g | Biodistribution, Lung (Biodistribution in rats; 60 min): 0.091 ± 0.015 % ID · kg/g | Biodistribution, Muscle (Biodistribution in rats; 60 min): 0.016 ± 0.002 % ID/g | Biodistribution, Pancreas (Biodistribution in rats; 60 min): 0.172 ± 0.042 % ID · kg/g | Biodistribution, Spleen (Biodistribution in rats; 60 min): 0.253 ± 0.054 % ID · kg/g | Biodistribution, Stomach (Biodistribution in rats; 60 min): 0.115 ± 0.029 % ID · kg/g | Biodistribution, Ovary (Biodistribution in rats; 60 min): 0.142 ± 0.052 % ID · kg/g | Biodistribution, Testes (Biodistribution in rats; 60 min): 0.008 ± 0.003 % ID · kg/g | Biodistribution, Uterus (Biodistribution in rats; 60 min): 0.112 ± 0.046 % ID · kg/g | Biodistribution, Adrenal (Biodistribution in rats; 120 min): 0.133 ± 0.021 % ID · kg/g | Biodistribution, Blood (Biodistribution in rats; 120 min): 0.009 ± 0.001 % ID/g | Biodistribution, Bone (Biodistribution in rats; 120 min): 0.016 ± 0.005 % ID/g | Biodistribution, Brain (Biodistribution in rats; 120 min): 0.001 ± 0.001 % ID · kg/g | Biodistribution, Eyeballs (Biodistribution in rats; 120 min): 0.026 ± 0.006 % ID · kg/g | Biodistribution, Heart (Biodistribution in rats; 120 min): 0.347 ± 0.055 % ID · kg/g | Biodistribution, Kidney (Biodistribution in rats; 120 min): 0.078 ± 0.024 % ID · kg/g | Biodistribution, Liver (Biodistribution in rats; 120 min): 0.233 ± 0.049 % ID · kg/g | Biodistribution, Lung (Biodistribution in rats; 120 min): 0.036 ± 0.006 % ID · kg/g | Biodistribution, Muscle (Biodistribution in rats; 120 min): 0.015 ± 0.002 % ID/g | Biodistribution, Pancreas (Biodistribution in rats; 120 min): 0.121 ± 0.016 % ID · kg/g | Biodistribution, Spleen (Biodistribution in rats; 120 min): 0.235 ± 0.066 % ID · kg/g | Biodistribution, Stomach (Biodistribution in rats; 120 min): 0.089 ± 0.019 % ID · kg/g | Biodistribution, Ovary (Biodistribution in rats; 120 min): 0.129 ± 0.029 % ID · kg/g | Biodistribution, Testes (Biodistribution in rats; 120 min): 0.004 ± 0.001 % ID · kg/g | Biodistribution, Uterus (Biodistribution in rats; 120 min): 0.081 ± 0.006 % ID · kg/g | net uptake rate constant Ki = (K1k3)/(k2+k3) ([3]; compartmental modeling, control studies, monkey heart): 0.341 ± 0.041 mL/min/g | average measured Patlak slope Kp ([3]; control studies, FIG. 11): 0.302 ± 0.031 mL/min/g | in vivo defluorination ([3]; faint uptake in spinal column bones): little in vivo defluorination | liver uptake compared with [11C]HED or [123I]MIBG ([3]; microPET control studies): much lower | uptake in the lungs and liver ([3]; microPET control studies): very low uptake | estimated Patlak slope Kpatlak ([3]; one control study, rhesus macaque, FIG. 10): 0.252 mL/min/g
